Data from ChEMBL document CHEMBL3865781, “Recent advances in the discovery and development of antibacterial agents targeting the cell-division protein FtsZ” (Bioorg Med Chem, 2016).
pIC50: −log10 of the molar value. Converted amounts (≈) assume the structure as drawn.

How the values were obtained:
[1] = tested on: Staphylococcus aureus; experiment: In vivo antibacterial activity against methicillin-resistant Staphylococcus aureus ATCC 33591 infected in ICR(CD-1) mouse thigh infection model assessed as reduction in colony forming units in thigh muscle at 120 to 160 mg/kg, po measured 24 hrs post infection; type: functional
[2] = tested on: Bacillus subtilis; experiment: Antibacterial activity against Bacillus subtilis after 4 hrs; type: functional
[3] = tested on: Mycolicibacterium smegmatis; experiment: Antibacterial activity against Mycobacterium smegmatis after 4 hrs; type: functional
[4] = tested on: Mycobacterium tuberculosis; experiment: Antibacterial activity against Mycobacterium tuberculosis H37Rv measured every 24 hrs for 7 days by MABA assay; type: functional
[5] = tested on: Mycobacterium tuberculosis; experiment: Antibacterial activity against Mycobacterium tuberculosis NHN382 clinical isolates measured every 24 hrs for 7 days by MABA assay; type: functional
[6] = tested on: Mycobacterium tuberculosis; experiment: Antibacterial activity against Mycobacterium tuberculosis TN587 clinical isolates measured every 24 hrs for 7 days by MABA assay; type: functional
[7] = tested on: Mycobacterium tuberculosis; experiment: Antibacterial activity against Mycobacterium tuberculosis W210 clinical isolates measured every 24 hrs for 7 days by MABA assay; type: functional
[8] = tested on: Mycobacterium tuberculosis; experiment: In vivo antibacterial activity against Mycobacterium tuberculosis H37Rv infected in C57BL/6 GKO-mouse assessed as reduction in bacterial load in lungs at 150 mg/kg, ip qd on day 12 post infection for 9 consecutive days; type: functional
[9] = tested on: Mycobacterium tuberculosis; experiment: In vivo antibacterial activity against Mycobacterium tuberculosis H37Rv infected in C57BL/6 GKO-mouse assessed as reduction in bacterial load in spleens at 150 mg/kg, ip qd on day 12 post infection for 9 consecutive days; type: functional
[10] = tested on: Staphylococcus aureus; experiment: Antibacterial activity against methicillin-resistant Staphylococcus aureus after 16 to 24 hrs by microdilution method; type: functional
[11] = tested on: Staphylococcus aureus; experiment: Antibacterial activity against methicillin-sensitive Staphylococcus aureus after 16 to 24 hrs by microdilution method; type: functional
[12] = tested on: Staphylococcus aureus; experiment: Antibacterial activity against vancomycin-intermediate Staphylococcus aureus isolates after 16 to 24 hrs by microdilution method; type: functional
[13] = tested on: Staphylococcus aureus; experiment: Antibacterial activity against vancomycin-resistant Staphylococcus aureus isolates after 16 to 24 hrs by microdilution method; type: functional
[14] = tested on: Staphylococcus aureus; experiment: Antibacterial activity against Daptomycin-nonsusceptible Staphylococcus aureus isolates after 16 to 24 hrs by microdilution method; type: functional
[15] = tested on: Staphylococcus aureus; experiment: Antibacterial activity against linezolid-nonsusceptible Staphylococcus aureus isolates after 16 to 24 hrs by microdilution method; type: functional
[16] = Half life in iv dosed BALB/c mouse administered 1 hr after ABT addition by LC-MS/MS analysis; type: ADME, organism-based; settings: in vivo
[17] = tested on: Escherichia coli; experiment: Antibacterial activity against Escherichia coli ATCC 25922 after 18 hrs by broth microdilution method; type: functional; settings: ATCC 25922, 18 h
[18] = tested on: Staphylococcus aureus; experiment: Antibacterial activity against methicillin-resistant Staphylococcus aureus ATCC BAA-41 after 18 hrs by broth microdilution method; type: functional; settings: ATCC BAA-41, 18 h
[19] = tested on: Enterococcus faecalis; experiment: Antimicrobial activity against vancomycin-resistant Enterococcus faecalis after 18 hrs by broth microdilution method; type: functional
[20] = tested on: Enterococcus faecalis; experiment: Antimicrobial activity against vancomycin-sensitive Enterococcus faecalis after 18 hrs by broth microdilution method; type: functional
[21] = tested on: Klebsiella pneumoniae; experiment: Antibacterial activity against Klebsiella pneumoniae ATCC BAA-1144 after 18 hrs by broth microdilution method; type: functional; settings: ATCC BAA-1144, 18 h
[22] = tested on: Staphylococcus aureus; experiment: Antibacterial activity against methicillin-sensitive Staphylococcus aureus after 18 hrs by broth microdilution method; type: functional
[23] = tested on: Escherichia coli; experiment: Antibacterial activity against Escherichia coli by broth dilution method; type: functional
[24] = tested on: Bacillus subtilis; experiment: Antibacterial activity against Bacillus subtilis by broth dilution method; type: functional
[25] = tested on: Staphylococcus aureus; experiment: Antibacterial activity against methicillin-resistant Staphylococcus aureus by broth dilution method; type: functional
[26] = molecular target: T1, Cell division protein FtsZ (Escherichia coli K-12, UniProt P0A9A6); experiment: Inhibition of recombinant Escherichia coli K12 FtsZ assembly by light-scattering assay
T1 sequence (P0A9A6 whole entry): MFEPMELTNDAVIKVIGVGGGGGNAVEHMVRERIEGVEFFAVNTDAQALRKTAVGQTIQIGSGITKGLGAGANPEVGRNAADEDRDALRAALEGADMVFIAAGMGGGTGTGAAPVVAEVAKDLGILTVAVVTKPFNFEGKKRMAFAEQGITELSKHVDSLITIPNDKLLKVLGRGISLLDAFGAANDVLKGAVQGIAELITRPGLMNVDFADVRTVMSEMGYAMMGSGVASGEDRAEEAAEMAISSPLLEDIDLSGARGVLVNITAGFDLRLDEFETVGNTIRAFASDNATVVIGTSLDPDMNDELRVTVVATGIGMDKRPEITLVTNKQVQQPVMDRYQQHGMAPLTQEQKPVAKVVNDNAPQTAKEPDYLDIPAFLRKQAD

[27] = molecular target: T1, Cell division protein FtsZ; experiment: Inhibition of recombinant Escherichia coli K12 FtsZ GTPase activity by malachite green sodium molybdate assay
[28] = tested on: Escherichia coli; experiment: Antibacterial activity against Escherichia coli; type: functional
[29] = tested on: Salmonella typhimurium; experiment: Antibacterial activity against Salmonella typhimurium; type: functional, Salmonella enterica subsp. enterica serovar Typhimurium; settings: Salmonella enterica
[30] = tested on: Staphylococcus aureus; experiment: Antibacterial against methicillin-resistant Staphylococcus aureus; type: functional
[31] = tested on: Priestia megaterium; experiment: Antibacterial against Bacillus megaterium; type: functional
[32] = tested on: Mycobacterium tuberculosis; experiment: Antibacterial activity against Mycobacterium tuberculosis NHN20 clinical isolates measured every 24 hrs for 7 days by MABA assay; type: functional
[33] = tested on: Mycobacterium tuberculosis; experiment: In vivo antibacterial activity against Mycobacterium tuberculosis H37Rv infected in GKO-TB mouse assessed as reduction in bacterial load in lungs at 50 mg/kg, ip or po bid for 10 consecutive days; type: functional
[34] = tested on: Mycobacterium tuberculosis; experiment: In vivo antibacterial activity against Mycobacterium tuberculosis str. Erdman infected in C57BL/6 mouse assessed as reduction in bacterial load in spleens at 50 mg/kg, ip bid on day 5 to 14 post infection measured on day 15 post infection; type: functional, Erdman = ATCC 35801
[35] = tested on: Bacillus subtilis; experiment: Antibacterial activity against Bacillus subtilis 168 after 12 hrs by agar dilution assay; type: functional; settings: subsp. subtilis str. 168, 12 h
[36] = tested on: Mycolicibacterium smegmatis; experiment: Antibacterial activity against Mycobacterium smegmatis after 12 hrs by agar dilution assay; type: functional
[37] = tested on: Bacillus subtilis; experiment: Antibacterial activity against Bacillus subtilis; type: functional
[38] = tested on: Staphylococcus aureus; experiment: Antibacterial activity against methicillin-resistant Staphylococcus aureus; type: functional
[39] = tested on: Staphylococcus aureus; experiment: Antibacterial activity against multi-drug resistant Staphylococcus aureus; type: functional
[40] = Toxicity in mouse infected with Staphylococcus aureus assessed as survival at 30 mg/kg, iv or po; type: organism-based; settings: in vivo

CN1CCC(C(=O)NC(=O)c2c(F)ccc(OCc3nc4cc(C(F)(F)F)cnc4s3)c2F)CC1
Activity [1]: 2 log10CFU

CCC(C)c1ccc(NC(=O)c2cccc3[nH]c(-c4cccs4)nc23)cc1 (centres undefined)
pIC50 [2]: 6.00
pIC50 [3]: 5.80

CCCCOC(=O)Nc1cc2nc(C3CCCCC3)[nH]c2cc1N(CC)CC
MIC99 [4]: 0.63 µg/mL (≈ 1.63 µM)
MIC99 [5]: 1.25 µg/mL (≈ 3.23 µM)
MIC99 [6]: 1.25 µg/mL (≈ 3.23 µM)
MIC99 [7]: 1.25 µg/mL (≈ 3.23 µM)
Activity [8]: 0.41 log10CFU
Activity [9]: 0.7 log10CFU

NC(=O)c1c(F)ccc(OCc2nc3cc(C(F)(F)F)cnc3s2)c1F
MIC [10]: 1 µg/mL (≈ 2.57 µM)
MIC [11]: 1 µg/mL (≈ 2.57 µM)
MIC [12]: 1 µg/mL (≈ 2.57 µM)
MIC [13]: 1 µg/mL (≈ 2.57 µM)
MIC [14]: 1 µg/mL (≈ 2.57 µM)
MIC [15]: 1 µg/mL (≈ 2.57 µM)
half-life [16]: 3.65 h

O=C/C=C/c1ccccc1 [CINNAMALDEHYDE]
MIC [17]: 32 to 128 µg/mL (≈ 242 to 969 µM)
MIC [18]: 2 to 8 µg/mL (≈ 15.1 to 60.5 µM)
MIC [19]: 4 to 16 µg/mL (≈ 30.3 to 121 µM)
MIC [20]: 4 to 16 µg/mL (≈ 30.3 to 121 µM)
MIC [21]: 32 to 128 µg/mL (≈ 242 to 969 µM)
MIC [22]: 2 to 8 µg/mL (≈ 15.1 to 60.5 µM)
MIC [23]: 0.1 µg/mL (≈ 0.757 µM)
MIC [24]: 0.5 µg/mL (≈ 3.78 µM)
MIC [25]: 0.25 µg/mL (≈ 1.89 µM)

COc1ccc2cc3[n+](cc2c1OC)CCc1cc2c(cc1-3)OCO2.[Cl-] [BERBERINE CHLORIDE]
MIC [17]: 32 to 128 µg/mL
MIC [18]: 2 to 8 µg/mL
MIC [20]: 4 to 16 µg/mL
MIC [21]: 32 to 128 µg/mL
MIC [22]: 2 to 8 µg/mL
pIC50 [26]: 5.00
pIC50 [27]: 4.80

H-GLLRKGGEKIGEKLKKIGQKIKNFFQKLVPQPEQ-OH
MIC [28]: 0.5 to 64 µM
MIC [29]: 0.5 to 64 µM
MIC [30]: 0.5 to 64 µM
MIC [31]: 0.5 to 64 µM

CN(C)c1cc2[nH]c(C3CCCCC3)nc2cc1NC(=O)c1ccc(OC(F)(F)F)c(F)c1F
MIC99 [4]: 0.39 µg/mL (≈ 0.808 µM)
MIC99 [5]: 0.37 µg/mL (≈ 0.767 µM)
MIC99 [6]: 0.31 µg/mL (≈ 0.643 µM)
MIC99 [7]: 0.47 µg/mL (≈ 0.974 µM)
MIC99 [32]: 0.39 µg/mL (≈ 0.808 µM)
Activity [33]: 2.5 - 3.4 log10CFU

CN(C)c1cc2[nH]c(C3CCCCC3)nc2cc1NC(=O)c1ccc(OC(F)(F)F)cc1
MIC99 [4]: 0.16 µg/mL (≈ 0.358 µM)
MIC99 [5]: 0.16 µg/mL (≈ 0.358 µM)
MIC99 [6]: 0.16 µg/mL (≈ 0.358 µM)
MIC99 [7]: 0.16 µg/mL (≈ 0.358 µM)
Activity [34]: 2.68 log10CFU

CC(=O)O[C@@]12CO[C@@H]1C[C@H](O)[C@@]1(C)C(=O)C(=O)C3=C(C)[C@@H](OC(=O)/C=C/c4ccc5ccccc5c4)C[C@@](O)([C@@H](OC(=O)c4ccccc4)[C@H]21)C3(C)C
MIC [35]: 30 µM (≈ 21.7 µg/mL)
MIC [36]: 60 µM (≈ 43.4 µg/mL)

NC(=O)c1c(F)ccc(OCc2nc3cc(Cl)cnc3s2)c1F
MIC [37]: 0.5 to 1 µg/mL (≈ 1.41 to 2.81 µM)
MIC [38]: 0.5 to 1 µg/mL (≈ 1.41 to 2.81 µM)
MIC [39]: 0.5 to 1 µg/mL (≈ 1.41 to 2.81 µM)
survival [40]: 100%
half-life [16]: 0.56 h
